The assay deals with T1, polyphosphatase PPN1 (Saccharomyces cerevisiae, UniProt Q04119).
T1 construct: recombinant, overexpressed in S. cerevisiae CRN/pMB1_PPN1 Sc and purified; proteolytically matured form of ~33 kDa on SDS-PAGE (precursor predicted 78 kDa); no tag mentioned
T1 sequence (Q04119 84-384): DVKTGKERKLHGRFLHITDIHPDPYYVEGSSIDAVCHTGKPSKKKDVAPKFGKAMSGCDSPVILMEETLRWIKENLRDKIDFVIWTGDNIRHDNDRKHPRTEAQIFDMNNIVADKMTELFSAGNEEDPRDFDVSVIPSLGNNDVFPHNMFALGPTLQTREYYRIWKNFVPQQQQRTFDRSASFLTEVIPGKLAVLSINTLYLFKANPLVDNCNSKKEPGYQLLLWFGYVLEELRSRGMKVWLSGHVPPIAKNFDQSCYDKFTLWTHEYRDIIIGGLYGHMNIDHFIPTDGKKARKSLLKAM
Briefly: inhibition of exopolyphosphatase activity (Pi release from PolyP208). It is filed as biochemical. As to conditions: inhibitor; PolyP208 2.5 mM as Pi, 0.1 mM CoSO4, 200 mM NH4Cl, pH 7.2, 30 C.

For the molecule `O=P(O)(O)OP(=O)(O)OP(=O)(O)O` [PolyP3], the “% of control activity at 2.0 mM” value is “PPi and PolyP3 inhibited Pi release”.

For `O=P(O)(O)OP(=O)(O)O` [PPi], the “% of control activity at 2.0 mM” value is “PPi and PolyP3 inhibited Pi release”.

(Values after PMC4350845, “Polyphosphatase PPN1 of Saccharomyces cerevisiae: Switching of Exopolyphosphatase and Endopolyphosphatase Activities” (PLoS ONE, 2015).)
